The values below come from US5902726A, “Activators of the nuclear orphan receptor peroxisome proliferator-activated receptor gamma” (priority 1998, dated 1999).

Data set [1] addresses T1, GAL4-PPARγ chimera (ligand-binding domain of the murine PPARγ) (Mus musculus, UniProt P37238).
T1 construct: transient in CV-1 cells with UAS-tk-SPAP reporter
T1 sequence (P37238 204-505): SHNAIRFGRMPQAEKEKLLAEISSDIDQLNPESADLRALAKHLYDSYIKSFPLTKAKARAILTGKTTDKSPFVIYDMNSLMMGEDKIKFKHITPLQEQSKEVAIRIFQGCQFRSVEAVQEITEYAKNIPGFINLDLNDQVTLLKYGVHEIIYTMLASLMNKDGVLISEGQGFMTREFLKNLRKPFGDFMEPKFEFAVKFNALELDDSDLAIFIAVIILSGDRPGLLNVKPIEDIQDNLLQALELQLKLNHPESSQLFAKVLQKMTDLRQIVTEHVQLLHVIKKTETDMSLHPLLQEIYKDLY
The data set is described as follows: Transient cotransfection assay: SPAP reporter. The class given is cell-based. To be noted: for fold induction at 10 µM: read-out: Fold Activation. The source says: A transient cotransfection assay was used to screen for activators of PPARγ. As mammalian cell lines contain endogenous nuclear receptors that can complicate interpretation of the results, we used an established chimera system in which the ligand-binding domain of the murine PPARγ was fused to the DNA binding domain of the yeast transcription factor GAL4. The GAL4-PPARγ chimera was cotransfected into CV-1 cells with a reporter construct containing five copies of the GAL4 binding site upstream of the thymidine kinase promoter driving secreted placental alkaline phosphatase (SPAP) as reporter.
GAL4-PPAR chimeras and UAS-tk-CAT/SPAP reporters.
CV-1 cells were plated in DME medium supplemented with 10% delipidated fetal calf serum at a density of 2.4×10^4 cells per well in a 96-well plate (Costar) 16-24 h before transfection. In general, 8.0 ng of reporter plasmid, 25.0 ng of β-galactosidase expression vector (pCH110, Pharamacia), and 2.0 ng of GAL4-PPARγ expression vector were mixed with carrier DNA (pBluescript, Stratagene) to a total of 80 ng of DNA per well in a volume of 10 μl optiME medium (GIBCO BRL). To this, a second mix, containing 9.3 μl optiME medium and 0.7 μl of LIPOFECTAMINE™ (GIBCO BRL), was added. After 30 min. an additional 80 μl of optiME medium were added and the combined mix was then applied to the cells.

A further data set concerns the target T2, GST-PPARγ LBD (Mus musculus, UniProt P37238).
T2 construct: cDNA encoding amino acids 174 to 475 of PPARg1; made in house; host or cells: E. coli BL21 (DE3)plysS, crude bacterial extract
T2 sequence (P37238 174-475 isoform P37238-2): T1 sequence (P37238 204-505)
The data set is described as follows: Saturation binding of radiolabeled ligand to GST-PPARγ LBD. To be noted: for non-specific binding: 500-fold excess of nontritiated compound. Also noted: species or system murine. The procedure: (§1) To test for direct interactions between thiazolidinediones and PPARγ,the ligand binding domain of PPARγ was expressed in E. Coli as a fusion protein with glutathionine-S-transferase (GST-PPARγ LBD).
Bound was separated from free radioactivity by elution through 1 ml Sephadex G-25 desalting columns (Boehringer Mannheim). Bound radioactivity eluted in the column void volume and was quantitated by liquid scintillation counting.

The subject of data set [2] is glutathione-S-transferase. As to the kind of experiment: Binding control in extracts from bacteria expressing glutathione-S-transferase. To be noted: extracts from bacteria expressing glutathione-S-transferase alone.
Source text: as §1

Another data set has as its system pre-adipocyte cell lines. The conditions noted are these: cited from earlier work.
In data set [3] the test system is enhancer/promoter of the lipid-binding protein aP2. The conditions noted are these: Harris and Kletzien, 1994; cited from earlier work.
The mark [4] stands for this setting: CV-1 cells, SPAP reporter, test compound at 10^-5 M, 24 h.

Molecules are shown by their SMILES. Where two headings read alike, the source gives them in different places.

As to `CC1(C)CCC(C)(C)c2cc3ncc(-c4ccccc4C(=O)O)cc3cc21` [2-(6,6,9,9-tetramethyl-6,7,8,9-tterahydro-benzo[g]quinolin-3-yl)-benzoic acid], in data set [1] (setting [4]), the fold induction at 10 µM was 25.9.

For the molecule `CCCCc1nc(Cl)c(C(=O)NCC(=O)OCC)n1Cc1ccc2oc(-c3ccccc3C(=O)O)c(Br)c2c1` [2-[3-Bromo-5-(2-butyl-4-chloro-5-ethoxycarbonylmethylcarbamoyl-imidazol-1-ylmethyl)-benzofuran-2-yl]-benzoic acid], the fold induction at 10 µM in data set [1] (setting [4]) was found to be 23.9.

With `O=C1NC(=O)C(Cc2ccc3c(c2)CCC(Cc2ccccc2)O3)S1` (stereo not drawn) [5-(2-Benzyl-chroman-6-ylmethyl)-thiazolidine-2,4-dione], the fold induction at 10 µM in data set [1] (setting [4]) came to 18.2.

As for `CC1(COc2ccc(CC3SC(=O)NC3=O)cc2)CCCCC1` (stereo not drawn) [5-[4-(1-methyl-cyclohexylmethoxy)-benzyl)-thiazolidine-2,4-dione], the fold induction at 10 µM in data set [1] (setting [4]) came out at 46.1.

Consider `CCCCCC(O)C=CC1C(O)CC2CC(=CCCCC(=O)O)CC21` (stereo not drawn) [5-[5-Hydroxy-4-(3-hydroxy-oct-1-enyl)-hexahydro-pentalen-2-ylidene]-pentanoic acid], for which the fold induction at 10 µM in data set [1] (CV-1, 24 h) was found to be 19.6.

`CN(CCOc1ccc(CC2SC(=O)NC2=O)cc1)c1ccccn1` (stereo not drawn) [5-{4-[2-(Methyl-pyridine-2-yl-amino)-ethoxy]-benzyl}-thiazolidine-2,4-dione]: at GST-PPARγ LBD (at 100 nM tritiated ligand), the Specific binding is recorded as 13,500 dpm and the non-specific binding is on record as 1,700 dpm. Also, on GST-PPARγ LBD (at 200 nM tritiated ligand), the Specific binding is given as 14,500 dpm and the non-specific binding is 1,900 dpm. Besides, in data set [2], the Binding result is “No binding was detected”.

`CCCCCC(O)C=CC1C(=O)CC(O)C1CC=CCCCC(=O)O` (stereo not drawn) [7-[5-Hydroxy-2-(3-hydroxy-oct-1-enyl)-3-oxo-cyclopentyl]-hept-5-enoic acid]: the fold induction at 10 µM in data set [1] (setting [4]) is 23.8.

For the molecule `CCCCCC(=O)C=CC1C(O)CC(=O)C1CCCCCCC(=O)O` (stereo not drawn) [7-[43-Hydroxy-5-oxo-2-(3-oxo-oct-1-enyl)-cyclopentyl]-heptanoic acid], the “Fold Activation” value in data set [1] (CV-1 cells, SPAP reporter, test compound at 10^-5 M, 24 h, 10 µM) was found to be 25.6.

`CCCCCC(C)c1ccc(C2=CCCC2CCCCCCC(=O)O)cc1` (stereo not drawn) [7-{2-[4-(1-Methyl-hexyl)-phenyl]-cyclopent-2-enyl}-heptanoic acid]: the fold induction at 10 µM in data set [1] (setting [4]) worked out at 27.

Take `O=C(O)CCCCCCC1=C(c2ccc(C(O)C3CCCC3)cc2)CCC1=O` (stereo not drawn) [7-{2-[4-(Cyclopentyl-hydroxy-methyl)-phenyl]-5-oxo-cyclopent-1-enyl}-heptanoic acid]: the fold induction at 10 µM in data set [1] (setting [4]) came out at 24.6.

Consider `CC(C)Oc1cc(CCCCC(=O)O)c(C=CC(=O)CCCCCC(=O)O)c(OC(C)C)c1` [9-[2-(4-Carboxy-butyl)-4,6-diisopropoxy-phenyl]-7-oxo-non-8-enoic acid], for which the fold induction at 10 µM in data set [1] (setting [4]) turned out to be 11.3.

As for `CCCc1c(-c2ccccc2)[nH]c2ccc(CC(=O)O)cc12` [(2-Phenyl-3-propyl-1H-indol-5-yl)-acetic acid], in data set [1] (setting [4]), the fold induction at 10 µM stood at 21.7.

For `O=C(O)Cc1ccc2[nH]c(-c3ccccc3)c(CCc3ccccc3)c2c1` [(3-phenethyl-2-phenyl-1H-indol-5-yl)-acetic acid], the fold induction at 10 µM in data set [1] (setting [4]) is 21.2.

In the case of `CN(C)c1ccc(Cc2ccc(N(C)C)cc2CC(=O)O)cc1` [[5-Dimethylamino-2-(4-dimethylamino-benzyl)-phenyl]-acetic acid], the fold induction at 10 µM in data set [1] (setting [4]) stood at 17.8.

`CCc1ccc(CCOc2ccc(CC3SC(=O)NC3=O)cc2)nc1` (stereo not drawn) [pioglitazone]: the “Expression of adipocyte-specific genes aP2 and adipsin and glucose transporter proteins GLUT-1 and GLUT-4” value with pre-adipocyte cell lines is reported as “increased expression”. The “Expression of chimeric aP2 enhancer/promoter CAT reporter gene” value in data set [3] is given as “stimulate expression”.

As for `Cc1cccc(Nc2cc(Cl)nc(SCC(=O)O)n2)c1C` [{4-Chloro-6-(2,3-dimethyl-phenylamino)-pyrimidin-2-ylsulfanyl}-acetic acid], in data set [1] (setting [4]), the fold induction at 10 µM worked out at 25.7.
